Columns and labels:
[1] = test system: PC12 cells; assay: Spectral index of the labeled amyloid peptide on PC12 cells preincubated with unlabeled beta-amyloid peptide; format: cell-based, rat; settings: PC12 cells preincubated 12 hours with 100 or 250 nM unlabeled peptide, FIG. 5, 4 independent experiments in triplicate
Protocol: PC12 cells (derived from male rat medullo-adrenal gland tumor) are inoculated into glass-bottomed Petri dishes previously treated with collagen and polyornithine. They are cultured for 7 days in an atmosphere containing 5% of CO2 at 37° C. in RPMI 1640 medium containing glutamine and supplemented with 10% of horse serum, 5% of fetal calf serum, 50 U/mL of penicillin and 50 μg/mL of streptomycin. To induce the differentiation of the cells, 50 ng/mL of murine neurotrophic growth factor (NGF) 2.5S are added to the medium 24 hours after the inoculation.
The day before the measurement, unlabeled beta-amyloid peptide 1-42 of SEQ. ID. No.: 1 or the corresponding unlabeled reverse peptide (42-1) of SEQ ID No.: 2 is added at different concentrations lying between 10 and 1000 nmol·L^−1.
The following day, this preparation is washed 3 times with Krebs medium at ambient temperature and placed on an inverted microscope coupled with a spectro-fluorimeter. A fluorescence spectrum (excitation 480 nm; emission 495-600 nm) of the base line is recorded before the addition of the labeled amyloid peptide (250 nmol·L^−1). A second fluorescence spectrum is recorded after 10 minutes of incubation.
The base line spectrum is subtracted from the fluorescence spectrum of the labeled amyloid peptide. […] The ratio of the amplitude (measured graphically or else with the deconvolution software) of the Gaussian curves centered respectively at 525 nm and 540 nm defines a spectral index describing the distribution of the spectrum
The PC12 cells are preincubated for 12 hours in the presence of unlabeled beta-amyloid peptide 1-42 or 42-1 then rinsed before being placed under a microscope coupled to a spectrofluorimeter. A first spectrum (base line) is recorded.
Next, the labeled beta-amyloid peptide is added. A spectrum is recorded 10 minutes after the addition of the fluorescent compound.
The spectral index is the ratio between the amplitude of the first and that of the second Gaussian calculated by deconvolution (see FIG. 4).

[2] = test system: rat erythrocytes; assay: Spectral index of the labeled amyloid peptide on rat erythrocytes preincubated with unlabeled beta-amyloid peptide; format: cell-based; settings: rat erythrocytes incubated 2 hours at 37° C. with unlabeled peptide (10-1000 nmol·L^-1); FIG. 6
Protocol: A sample of rat blood (1 to 3 ml) is collected in a heparinized tube. The sample is diluted with Krebs medium then centrifuged three times discarding the buffer layer (“buffy coat”). The erythrocytes obtained are next incubated at 37° C. for 2 hours in the presence of the unlabeled beta-amyloid peptide 1-42 or the corresponding unlabeled reverse peptide (42-1) at various concentrations (10-1000 nmol·L^−1). After an additional washing, the cells are placed in a spectro-fluorimeter and a fluorescence spectrum (excitation 480 nm; emission 495-600 nm) of the base line is recorded before the addition of the labeled amyloid peptide (250 nmol·L^−1). A second fluorescence spectrum is recorded after 10 minutes of incubation in the presence of the labeled amyloid peptide.
The base line spectrum is subtracted from the fluorescence spectrum of the labeled beta-amyloid peptide. The spectrum obtained is broken down into 4 component Gaussian curves by deconvolution and non-linear regression. The ratio of the amplitude of the Gaussian centered around 510 nm to the amplitude of the Gaussian centered around 530 nm is calculated. Its value varies as a function of the concentration of unlabeled beta-amyloid peptide 1-42 in the presence of which the cells were incubated as illustrated in FIG. 6.

Row | Substance | change in the value of the spectral index of the labeled amyloid peptide induced by preincubation with unlabeled peptide [1] | value of the spectral index (ratio of Gaussian amplitudes around 510 nm and 530 nm) of the labeled amyloid peptide after preincubation with unlabeled peptide [2] | change in the value of the spectral index of the labeled amyloid peptide induced by preincubation with unlabeled peptide ([1]; listed as β-amyloid peptide 42-1)
1 | beta-amyloid peptide 1-42: unlabeled human beta-amyloid peptide 1-42 of SEQ ID No.: 1 | increases with the increase in concentration of peptide preincubated | increases as a function of the concentration | –
2 | beta-amyloid peptide 42-1: corresponding unlabeled reverse peptide (42-1) of SEQ ID No.: 2, inactive (AIVVGGVMLGIIAGKNSGVDEAFFVLKQHHVEYGSDHRFEAD; listed as Homo sapiens) | no significant effect | – | absence of change

Source: US8993781B2, “Fluorescent boron-substituted dipyrromethenes and use thereof for diagnosis” (Centre National de la Recherche Scientifique, priority 2008, dated 2015)
